Assay [1] has as its system S. aureus (Wood 46, NCTC 7121). The assay can be described thus: Antimicrobial susceptibility testing by flow cytometry-based assay (LIVE/DEAD BacLight, Syto9/PI). It is filed as cell-based, Staphylococcus aureus. To be noted: 30 minutes. How it is done: E. coli (strain NCTC 10418), P. aeruginosa (Strain PAO1) and S. aureus (Wood 46, NCTC 7121) cells were grown in 5 mL of Todd Hewitt Broth medium (THB; Sigma-Aldrich). Bacteria were cultivated at 37° C. for 15 h in a 15 mL tube to obtain late-log phase cultures. Bacterial cultures were pelleted at 3096 g for 10 minutes; the supernatant was discarded and bacteria were resuspended in phosphate-buffered saline (PBS) supplemented with 40 mg/ml human albumin to mimic chemical properties of blood. Bacteria were diluted to a standardized inoculum of 10^9 CFU/mL.
Bacteria were treated with GA, LL-37, Piperacillin/Tazobactam or Vancomycin in varying concentrations, i.e. 50, 25, 10 or 2 μg/ml, for 30 minutes. As a positive control, bacteria were treated with 7% isopropanol. Hereafter, bacteria were pelleted at 3096 g for 10 minutes; the supernatant was discarded and bacteria were resuspended in PBS. The antimicrobial effect was tested in a well-established and widely used flow cytometry-based assay (LIVE/DEAD® BacLight™ Bacterial Viability and Counting Kit (L34856), Molecular Probes/Invitrogen) according to manufacturer's manual.
For each bacteria, the flow cytometry-based assay was repeated four times.

Assay [2] deals with E. coli (NCTC 10418). The experiment in a line: Antimicrobial susceptibility testing (MIC) by the oCelloScope system. The format is cell-based, Escherichia coli. To be noted: CAMHBT broth, SESA growth curves. On the procedure: (§1) E. coli (strain NCTC 10418) and S. aureus (Wood 46, NCTC 7121) were grown overnight in Sensititre® cation-adjusted Mueller-Hinton broth with TES (CAMHBT, TREK Diagnostic System). Bacterial cell suspensions were adjusted to 0.5 McFarland standard using a nephelometer. Subsequently, bacteria were diluted in CAMHBT according to the recommended final inoculum size for broth dilution (5×10^5 colony-forming units (CFU) ml^−1) (Wiegand, I., K. Hilpert, and R. E. Hancock, Agar and broth dilution methods to determine the minimal inhibitory concentration (MIC) of antimicrobial substances. Nat Protoc, 2008. 3(2): p. 163-75) and analyzed in Nunc Edge 96-well plates by the oCelloScope system.
(§2) The oCelloScope is a digital time-lapse microscopy technology that scans through a fluid sample generating series of images as described in 2013 by Fredborg et al. (Fredborg, M., et al., Real-time optical antimicrobial susceptibility testing. J Clin Microbiol, 2013. 51(7): p. 2047-53). As a result of the tilted imaging plane, the images recorded by the oCelloScope system constitute a parallelepipedum that forms the image stack. […] Growth kinetics was determined by image stack processing based on contrast based Segmentation and Extraction of Surface Area (SESA). […]
(§3) The effect of GA on bacterial growth was further evaluated using, an optical screening system (oCelloScope) (FIG. 6). […]

Assay [3] has as its system S. aureus (Wood 46). The assay is described as above. The format is cell-based, Staphylococcus aureus. To be noted: CAMHBT broth, SESA growth curves. On the procedure: as §1, §2, §3
The test system of assay [4] is E. coli (strain NCTC 10418). The assay can be described thus: Colony-forming unit (CFU) counting. It is filed as cell-based, Escherichia coli. To be noted: 30 minutes at 37° C. in PBS, even at 2 μg/ml. On the procedure:
Late-log phase E. coli (strain NCTC 10418), P. aeruginosa (strain PAO1, ATCC 15692) and S. aureus (Wood 46, NCTC 7121) were resuspended in PBS and treated with different concentrations of glatiramer acetate (GA) or LL-37 (Innovagen, Lund, Sweden) and incubated on a shaker for 30 minutes at 37° C. Subsequently, a dilution series was performed to achieve a suitable amount of bacteria on the 5% blood agar plates. The 5% blood agar streak plates were cultured at 37° C. for 16 h and the resulting CFUs on the blood agar plates were imaged with a digital camera and counted with the aid of the software ImageJ 1.48v.

Assay [5] has as its system multi-resistant P. aeruginosa strain (CCUG59626). The experiment in a line: Flow cytometry viability assay on multiresistant strain. The format is cell-based, Pseudomonas aeruginosa. To be noted: CCUG59626, ~10^8 cells/ml. On the procedure: A multi-resistant P. aeruginosa strain (CCUG59626) (˜10^8 cells/ml) was incubated with varying concentrations of GA and LL-37. […] All experiments were performed as four replicates.

The results in this text go back to US10166253B2, “Positively charged co-polymers for use as antimicrobial agents” (priority 2014, dated 2019).

On to Glatiramer acetate [GA], for which the “percentage of bacteria testing positive for PI” value in assay [1] turned out to be 12.1%. The results for the minimal inhibitory concentration (MIC) in assay [2] and in assay [3] were 31 mg/L and 500 mg/L, respectively. Moreover, in assay [4], the “antibacterial effect by CFU counting (in words)” value is “enhanced ability to kill E. coli”. In addition, the “susceptibility of multiresistant strain (in words)” value in assay [5] is reported as “highly susceptible”.
